Laboratory results as given in ChEMBL document CHEMBL5576050, “Discovery of a DCAF11-dependent cyanoacrylamide-containing covalent degrader of BET-proteins” (Bioorg Med Chem Lett, 2024).
Activity calls are given as the source filed them. The calls are words filed in the database; no cut-off is given here.

Tests used:
KBM-7 [1] = assay: Downregulation of c-Myc expression in human KBM-7 cells at 5 uM after 5 hrs by Western blotting analysis; format: functional, cell-based
[2] = molecular target: T1, Bromodomain-containing protein 4 (Homo sapiens, UniProt O60885); assay: Induction of BRD4 degradation in human KBM-7 cells at 5 uM incubated for 5 hrs by Western blotting analysis; format: cell-based
[3] = molecular target: Bromodomain-containing protein 3 (Homo sapiens) (UniProt Q15059); assay: Induction of BRD3 degradation in human KBM-7 cells at 5 uM incubated for 5 hrs by Western blotting analysis; format: cell-based
Sequence of Bromodomain-containing protein 3 (Homo sapiens) (Q15059 2-726 limits assumed): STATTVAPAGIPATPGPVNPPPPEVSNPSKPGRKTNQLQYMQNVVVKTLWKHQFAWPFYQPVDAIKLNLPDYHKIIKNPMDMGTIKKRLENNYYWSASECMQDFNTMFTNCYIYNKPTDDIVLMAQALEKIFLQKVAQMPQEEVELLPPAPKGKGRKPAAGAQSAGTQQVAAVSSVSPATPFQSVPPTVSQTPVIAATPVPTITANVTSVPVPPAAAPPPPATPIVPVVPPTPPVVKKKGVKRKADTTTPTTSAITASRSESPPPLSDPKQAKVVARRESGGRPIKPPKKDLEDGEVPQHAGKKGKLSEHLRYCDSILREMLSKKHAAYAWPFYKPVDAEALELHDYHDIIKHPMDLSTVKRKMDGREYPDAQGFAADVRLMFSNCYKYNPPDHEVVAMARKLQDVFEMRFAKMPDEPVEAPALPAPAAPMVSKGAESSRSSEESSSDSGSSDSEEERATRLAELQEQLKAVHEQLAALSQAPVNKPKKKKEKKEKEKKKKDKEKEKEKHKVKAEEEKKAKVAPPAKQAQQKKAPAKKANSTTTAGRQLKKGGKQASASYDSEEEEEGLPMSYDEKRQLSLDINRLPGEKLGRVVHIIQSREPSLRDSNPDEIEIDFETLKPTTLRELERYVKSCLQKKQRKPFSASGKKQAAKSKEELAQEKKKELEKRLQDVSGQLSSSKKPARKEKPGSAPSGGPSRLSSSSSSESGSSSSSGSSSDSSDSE

[4] = molecular target: Bromodomain-containing protein 3 (Homo sapiens) (UniProt Q15059); assay: Induction of BRD3 degradation in human KBM-7 cells at 5 uM pretreated with […] binder 11 for 1 hr followed by compound addition and measured after 5 hrs by Western blotting analysis; format: cell-based
[5] = molecular target: T1, Bromodomain-containing protein 4; assay: Induction of HA-tagged BRD4S degradation in human KBM-7 cells at 5 uM pretreated with bortezomib for 1 hr followed by compound addition and measured after 6 hrs by Western blotting analysis; format: cell-based
[6] = molecular target: T1, Bromodomain-containing protein 4; assay: Induction of BRD4S-BFP in DCAF11 knockout human K-BM7 cells transduced with sgRNA-resistant DCAF11 vector containing Cys-to-Ala mutant at 5 uM incubated for 6 hrs by flow cytometry analysis; format: cell-based; conditions: KBM-7
[7] = molecular target: T1, Bromodomain-containing protein 4; assay: Induction of HA-tagged BRD4S degradation in human KBM-7 cells at 5 uM pretreated with TAK-243 for 1 hr followed by compound addition and measured after 6 hrs by Western blotting analysis; format: cell-based
[8] = molecular target: T1, Bromodomain-containing protein 4; assay: Induction of BRD4 degradation in DCAF11 knockout human KBM-7 cells at 5 uM after 6 hrs by Western blotting analysis; format: cell-based
[9] = molecular target: T1, Bromodomain-containing protein 4; assay: Induction of HA-tagged BRD4S degradation in human KBM-7 cells at 5 uM after 5 to 20 hrs by Western blotting analysis; format: cell-based; conditions: time 5-20 hrs
[10] = molecular target: Bromodomain-containing protein 3 (Homo sapiens) (UniProt Q15059); assay: Induction of BRD3 degradation in DCAF11 knockout human KBM-7 cells at 5 uM after 6 hrs by Western blotting analysis; format: cell-based
[11] = molecular target: T1, Bromodomain-containing protein 4; assay: Induction of BRD4 degradation in human KBM-7 cells at 5 uM pretreated with […] binder 11 for 1 hr followed by compound addition and measured after 5 hrs by Western blotting analysis; format: cell-based
[12] = molecular target: Bromodomain-containing protein 3 (Homo sapiens) (UniProt Q15059); assay: Induction of BRD3 degradation in human KBM-7 cells at 5 uM pretreated with carfilzomib for 1 hr followed by compound addition and measured after 6 hrs by Western blotting analysis; format: cell-based
[13] = molecular target: Bromodomain-containing protein 3 (Homo sapiens) (UniProt Q15059); assay: Induction of BRD3 degradation in human KBM-7 cells at 5 uM pretreated with […] binder 12 for 1 hr followed by compound addition and measured after 5 hrs by Western blotting analysis; format: cell-based
KBM-7 [14] = assay: Downregulation of c-MYC expression in DCAF11 knockout human KBM-7 cells at 5 uM after 6 hrs by Western blotting analysis; format: functional, cell-based
[15] = molecular target: T1, Bromodomain-containing protein 4; assay: Induction of HA-tagged BRD4S degradation in human KBM-7 cells at 5 uM pretreated with carfilzomib for 1 hr followed by compound addition and measured after 6 hrs by Western blotting analysis; format: cell-based
[16] = molecular target: Bromodomain-containing protein 3 (Homo sapiens) (UniProt Q15059); assay: Induction of BRD3 degradation in human KBM-7 cells at 5 uM pretreated with TAK-243 for 1 hr followed by compound addition and measured after 6 hrs by Western blotting analysis; format: cell-based
[17] = molecular target: Bromodomain-containing protein 3 (Homo sapiens) (UniProt Q15059); assay: Induction of BRD3 degradation in human KBM-7 cells at 5 uM pretreated with bortezomib for 1 hr followed by compound addition and measured after 6 hrs by Western blotting analysis; format: cell-based
[18] = molecular target: T1, Bromodomain-containing protein 4; assay: Induction of nLuc-tagged BRD4S degradation in human KBM-7 cells incubated for 2 to 24 hrs by nanoluciferase based assay; format: cell-based; conditions: for Activity: time 2-24 hrs
[19] = molecular target: T1, Bromodomain-containing protein 4; assay: Induction of BRD4S-BFP in DCAF11 knockout human K-BM7 cells transduced with sgRNA-resistant wild-type DCAF11 at 5 uM incubated for 6 hrs by flow cytometry analysis; format: cell-based; conditions: KBM-7
[20] = molecular target: T1, Bromodomain-containing protein 4; assay: Induction of BRD4 degradation in human KBM-7 cells at 5 uM pretreated with […] binder 12 for 1 hr followed by compound addition and measured after 5 hrs by Western blotting analysis; format: cell-based
[21] = molecular target: Bromodomain-containing protein 2 (Homo sapiens) (UniProt P25440); assay: Induction of BRD2 degradation in human KBM-7 cells at 5 uM pretreated with […] binder 11 for 1 hr followed by compound addition and measured after 5 hrs by Western blotting analysis; format: cell-based
Sequence of Bromodomain-containing protein 2 (Homo sapiens) (P25440 whole entry, looked up): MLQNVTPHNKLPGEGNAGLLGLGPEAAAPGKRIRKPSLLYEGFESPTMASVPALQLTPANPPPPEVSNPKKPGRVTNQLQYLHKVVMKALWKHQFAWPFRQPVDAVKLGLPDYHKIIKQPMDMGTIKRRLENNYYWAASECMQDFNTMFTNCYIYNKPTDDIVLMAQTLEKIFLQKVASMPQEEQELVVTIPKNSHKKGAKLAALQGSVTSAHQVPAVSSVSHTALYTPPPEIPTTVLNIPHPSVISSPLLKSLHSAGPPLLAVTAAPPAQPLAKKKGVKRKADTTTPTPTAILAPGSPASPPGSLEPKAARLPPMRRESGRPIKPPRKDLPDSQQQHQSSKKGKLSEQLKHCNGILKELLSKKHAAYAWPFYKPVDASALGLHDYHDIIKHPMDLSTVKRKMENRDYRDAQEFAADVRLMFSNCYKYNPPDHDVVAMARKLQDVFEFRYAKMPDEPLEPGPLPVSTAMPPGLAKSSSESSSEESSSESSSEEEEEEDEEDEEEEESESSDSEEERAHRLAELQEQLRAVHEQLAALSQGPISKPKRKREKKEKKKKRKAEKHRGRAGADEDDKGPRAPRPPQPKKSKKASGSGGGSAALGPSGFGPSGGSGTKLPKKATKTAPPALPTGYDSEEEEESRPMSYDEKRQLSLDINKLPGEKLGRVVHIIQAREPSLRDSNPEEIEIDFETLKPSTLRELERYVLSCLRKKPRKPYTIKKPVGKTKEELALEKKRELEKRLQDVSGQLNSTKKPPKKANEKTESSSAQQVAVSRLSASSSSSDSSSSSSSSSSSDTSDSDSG

[22] = molecular target: T1, Bromodomain-containing protein 4; assay: Induction of nLuc-tagged BRD4S degradation in human KBM-7 cells by nanoluciferase based assay; format: cell-based; conditions: time 2-24 hrs, TDE = time-dependent effect
[23] = molecular target: Bromodomain-containing protein 2 (Homo sapiens) (UniProt P25440); assay: Induction of BRD2 degradation in human KBM-7 cells at 5 uM pretreated with DCAF11 binder 12 for 1 hr followed by compound addition and measured after 5 hrs by Western blotting analysis; format: cell-based

Cc1sc2c(c1C)C(c1ccc(Cl)cc1)=N[C@@H](CC(=O)NCCCCCCNC(=O)COc1ccc(CNC(=O)CCc3ccc4ccccc4c3)cc1)c1nnc(C)n1-2
Activity (KBM-7 [1]): inactive
Activity [2]: Active
Activity [3]: Active

Cc1sc2c(c1C)C(c1ccc(Cl)cc1)=N[C@@H](CC(=O)NCCCCCCNC(=O)COc1ccc(CNC(=O)/C(C#N)=C/c3ccc4ccccc4c3)cc1)c1nnc(C)n1-2
Activity [4]: inactive
Activity [5]: inactive
Activity (KBM-7 [1]): Active
Activity [6]: inactive
Activity [7]: inactive
Activity [8]: inactive
Activity [2]: Active
Activity [9]: Active
Activity [10]: inactive
Activity [11]: inactive
Activity [3]: Active
Activity [12]: inactive
Activity [13]: inactive
Activity (KBM-7 [14]): Active
Activity [15]: inactive
Activity [16]: inactive
Activity [17]: inactive
DC50 [18]: 0.305 µM
Activity [18]: Dose-Dependent Effect
Activity [19]: Active
Activity [20]: inactive
Activity [21]: inactive
Activity [22]: Tde
Activity [23]: inactive

Cc1sc2c(c1C)C(c1ccc(Cl)cc1)=N[C@@H](CC(=O)NCCCCCCNC(=O)COc1ccc(CNC(=O)/C=C/c3ccc4ccccc4c3)cc1)c1nnc(C)n1-2
Activity (KBM-7 [1]): inactive
Activity [2]: Active
Activity [3]: Active
Activity [18]: inactive

Cc1sc2c(c1C)C(c1ccc(Cl)cc1)=N[C@@H](CC(=O)NCCOCCOCCNC(=O)COc1ccc(CNC(=O)/C(C#N)=C/c3ccc4ccccc4c3)cc1)c1nnc(C)n1-2
DC50 [18]: 0.396 µM
Activity [18]: Dose-Dependent Effect
Activity [22]: Tde
